Assay results published in patent publication US11926616B2, “Aminopyrazine diol compounds as PI3K-γ inhibitors” (Incyte Corporation, priority 2018, dated 2024).
pIC50: −log10 of the molar value.

How the values were obtained:
[1] = biological target: PI3Kγ (p110γ) Recombinant Human Protein (Homo sapiens (Human), UniProt P48736); test: PI3K-γ Scintillation Proximity Assay; assay type: biochemical; conditions: 20 μM PIP2, 2 μM ATP, 13 nM PI3Kγ, 120 min, room temperature
Source text: Example B. PI3K-γ Scintillation Proximity Assay Materials: [γ-^33P]ATP (10 mCi/mL) and Wheat Germ Agglutinin (WGA) YSi SPA Scintillation Beads was purchased from Perkin Elmer (Waltham, MA). Lipid kinase substrate, D-myo-Phosphatidylinositol 4,5-bisphosphate (PtdIns(4,5)P2)D (+)-sn-1,2-di-O-octanoylglyceryl, 3-O-phospho linked (PIP2), CAS 204858-53-7, was purchased from Echelon Biosciences (Salt Lake City, UT). PI3Kγ (p110γ) Recombinant Human Protein was purchased from Life technology (Grand Island, NY). ATP, MgCl2, DTT, EDTA, MOPS and CHAPS were purchased from Sigma Aldrich (St. Louis, MO). The kinase reaction was conducted in polystyrene 384-well Greiner Bio-one white plate from Thermo Fisher Scientific in a final volume of 25 μL. Inhibitors were first diluted serially in DMSO and added to the plate wells before the addition of other reaction components. The final concentration of DMSO in the assay was 2%. The PI3Kγ assay was carried out at room temperature in 20 mM MOPS, pH 6.7, 10 mM MgCl2, 5 mM DTT and CHAPS 0.03%. Reactions were initiated by the addition of ATP, the final reaction mixture consisted of 20 μM PIP2, 2 μM ATP, 0.5 μCi [γ-^33P] ATP, 13 nM PI3Kγ. Reactions were incubated for 120 min and terminated by the addition of 40 μL SPA beads suspended in quench buffer: 163 mM potassium phosphate pH 7.8, 20% glycerol, 25 mM EDTA. The final concentration of SPA beads is 1.0 mg/mL. After the plate sealing, plates were shaken overnight at room temperature and centrifuged at 1500 rpm for 10 min, the radioactivity of the product was determined by scintillation counting on Topcount (Perkin-Elmer). IC50 determination was performed by fitting the curve of percent of the solvent control activity versus the log of the inhibitor concentration using the GraphPad Prism 6.0 software.

[2] = biological target: PI3Kδ (p110δ/p85α) Recombinant Human Protein (Homo sapiens (Human), UniProt O00329); test: PI3Kδ Scintillation Proximity Assay; assay type: biochemical; conditions: 20 μM PIP2, 2 μM ATP, 3.4 nM PI3Kδ, 120 min, room temperature
PI3Kδ (p110δ/p85α) Recombinant Human Protein, sequence (O00329 whole entry): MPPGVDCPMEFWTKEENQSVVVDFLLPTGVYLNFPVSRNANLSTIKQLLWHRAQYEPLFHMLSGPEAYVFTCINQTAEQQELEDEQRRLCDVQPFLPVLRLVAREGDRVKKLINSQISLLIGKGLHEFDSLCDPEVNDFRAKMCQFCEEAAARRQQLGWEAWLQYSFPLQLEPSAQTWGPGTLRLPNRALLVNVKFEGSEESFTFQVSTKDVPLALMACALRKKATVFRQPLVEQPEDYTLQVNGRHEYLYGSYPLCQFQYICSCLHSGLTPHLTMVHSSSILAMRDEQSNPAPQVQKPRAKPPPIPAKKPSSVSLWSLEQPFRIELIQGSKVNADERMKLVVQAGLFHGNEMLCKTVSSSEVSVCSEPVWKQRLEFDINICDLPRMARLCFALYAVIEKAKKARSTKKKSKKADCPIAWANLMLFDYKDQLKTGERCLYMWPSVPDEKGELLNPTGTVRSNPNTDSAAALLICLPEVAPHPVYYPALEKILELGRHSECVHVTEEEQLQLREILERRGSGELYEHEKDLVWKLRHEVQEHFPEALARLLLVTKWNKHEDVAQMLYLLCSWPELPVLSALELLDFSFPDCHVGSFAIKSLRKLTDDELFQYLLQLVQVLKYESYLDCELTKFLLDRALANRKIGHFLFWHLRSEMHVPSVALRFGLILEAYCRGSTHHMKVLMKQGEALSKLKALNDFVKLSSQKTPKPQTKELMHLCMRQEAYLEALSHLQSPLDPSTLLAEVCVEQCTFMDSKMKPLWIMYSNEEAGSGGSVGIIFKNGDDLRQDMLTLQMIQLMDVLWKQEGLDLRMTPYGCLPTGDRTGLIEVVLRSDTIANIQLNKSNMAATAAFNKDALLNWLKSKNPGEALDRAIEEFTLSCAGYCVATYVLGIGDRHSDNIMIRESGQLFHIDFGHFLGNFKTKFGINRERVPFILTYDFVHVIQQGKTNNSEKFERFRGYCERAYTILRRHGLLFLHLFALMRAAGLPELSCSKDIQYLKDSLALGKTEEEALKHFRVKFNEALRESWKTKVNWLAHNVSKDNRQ
PI3Kδ (p110δ/p85α) Recombinant Human Protein, sequence (P27986 whole entry partner): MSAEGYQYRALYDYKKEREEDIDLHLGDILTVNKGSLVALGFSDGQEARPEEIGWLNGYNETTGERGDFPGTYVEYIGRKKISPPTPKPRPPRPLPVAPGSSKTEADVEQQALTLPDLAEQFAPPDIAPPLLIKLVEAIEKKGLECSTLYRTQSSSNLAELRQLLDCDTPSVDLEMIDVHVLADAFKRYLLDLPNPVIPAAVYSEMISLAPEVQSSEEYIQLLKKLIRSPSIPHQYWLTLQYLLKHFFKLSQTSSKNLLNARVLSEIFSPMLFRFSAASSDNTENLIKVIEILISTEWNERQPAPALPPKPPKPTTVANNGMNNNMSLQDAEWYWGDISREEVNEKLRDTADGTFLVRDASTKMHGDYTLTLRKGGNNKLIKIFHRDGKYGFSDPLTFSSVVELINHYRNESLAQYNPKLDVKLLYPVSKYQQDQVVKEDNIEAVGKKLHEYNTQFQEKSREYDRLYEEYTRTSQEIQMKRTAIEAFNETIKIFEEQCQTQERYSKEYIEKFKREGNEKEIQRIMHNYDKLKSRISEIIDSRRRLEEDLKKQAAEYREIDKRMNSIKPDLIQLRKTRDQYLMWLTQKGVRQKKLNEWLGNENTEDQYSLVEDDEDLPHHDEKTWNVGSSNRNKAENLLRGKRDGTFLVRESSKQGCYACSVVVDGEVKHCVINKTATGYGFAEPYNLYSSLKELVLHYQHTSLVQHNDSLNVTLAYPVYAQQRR
Source text: Example C. PI3Kδ Scintillation Proximity Assay Materials: [γ-^33P]ATP (10 mCi/mL) and Wheat Germ Agglutinin (WGA) YSi SPA Scintillation Beads was purchased from Perkin Elmer (Waltham, MA). Lipid kinase substrate, D-myo-Phosphatidylinositol 4,5-bisphosphate (PtdIns(4,5)P2)D (+)-sn-1,2-di-O-octanoylglyceryl, 3-O-phospho linked (PIP2), CAS 204858-53-7, was purchased from Echelon Biosciences (Salt Lake City, UT). PI3Kδ (p110δ/p85α) Recombinant Human Protein was purchased from Eurofins (St Charles, MO). ATP, MgCl2, DTT, EDTA, MOPS and CHAPS were purchased from Sigma Aldrich (St. Louis, MO). The kinase reaction was conducted in polystyrene 384-well Greiner Bio-one white plate from Thermo Fisher Scientific in a final volume of 25 μL. Inhibitors were first diluted serially in DMSO and added to the plate wells before the addition of other reaction components. The final concentration of DMSO in the assay was 2%. The PI3Kδ assay was carried out at room temperature in 20 mM MOPS, pH 6.7, 10 mM MgCl2, 5 mM DTT and CHAPS 0.03%. Reactions were initiated by the addition of ATP, the final reaction mixture consisted of 20 μM PIP2, 2 μM ATP, […] [γ-^33P] ATP, 3.4 nM PI3Kδ. Reactions were incubated for 120 min and terminated by the addition of 40 μL SPA beads suspended in quench buffer: 163 mM potassium phosphate pH 7.8, 20% glycerol, 25 mM EDTA. The final concentration of SPA beads is 1.0 mg/mL. After the plate sealing, plates were shaken overnight at room temperature and centrifuged at 1500 rpm for 10 min, the radioactivity of the product was determined by scintillation counting on Topcount (PerkinElmer). IC50 determination was performed by fitting the curve of percent of the solvent control activity versus the log of the inhibitor concentration using the GraphPad Prism 6.0 software.

[3] = test system: Phosphorylated Ribosomal Protein S6 (RPS6) in THP-1 cells; test: THP-1 RPS6 ELISA Assay; assay type: cell-based, Human; conditions: Homo sapiens; THP-1 cells, serum starved, 2 hours compound, 10 nM MCP-1 for 15 minutes, Phospho-RPS6 ELISA; read-out: PI3Kγ_THP1_RPS6_ELISA IC50
Protocol: Example A. THP-1 RPS6 ELISA Assay
To measure the Phosphorylated Ribosomal Protein S6 (RPS6) in cell lysates, THP-1 cells (Human Acute Monocytic Leukemia) are purchased from ATCC (Manassas, VA) and maintained in RPMI with 10% FBS (Gibco/Life Technologies, Carlsbad, CA). For the assay, THP-1 cells are serum starved overnight in RPMI, then plated in RPMI (2×10^5 cells/well in 90 μL) into 96-well flat-bottom tissue culture treated plates (Corning, Corning, NY), in the presence or absence of a concentration range of test compounds. Covered plates are incubated for 2 hours at 37° C., 5% CO2 then treated with or without 10 nM MCP-1(MYBioSource, San Diego, CA) for 15 minutes at 37° C., 5% CO2. Plates are centrifuged at 1600 RPM and supernatants are removed. Cells are lysed in Lysis Buffer (Cell Signaling, Danvers, MA) with Protease Inhibitor (Calbiochem/EMD, Germany), PMSF (Sigma, St Louis MO), HALTS (Thermo Fisher, Rockford, IL) for 30 min on wet ice. Cell lysates are frozen at −80° C. before testing. The lysates are tested in the Human/Mouse/Rat Phospho-RPS6 ELISA (R&D Systems, Inc. Minn, MN). The plate is measured using a microplate reader (SpectraMax M5—Molecular Devices, LLC Sunnyvale, CA) set to 450 nm with a wavelength correction of 540. IC50 determination is performed by fitting the curve of inhibitor percent inhibition versus the log of the inhibitor concentration using the GraphPad Prism 5.0 software.

PI3Kγ (p110γ) Recombinant Human Protein, sequence (P48736 whole entry): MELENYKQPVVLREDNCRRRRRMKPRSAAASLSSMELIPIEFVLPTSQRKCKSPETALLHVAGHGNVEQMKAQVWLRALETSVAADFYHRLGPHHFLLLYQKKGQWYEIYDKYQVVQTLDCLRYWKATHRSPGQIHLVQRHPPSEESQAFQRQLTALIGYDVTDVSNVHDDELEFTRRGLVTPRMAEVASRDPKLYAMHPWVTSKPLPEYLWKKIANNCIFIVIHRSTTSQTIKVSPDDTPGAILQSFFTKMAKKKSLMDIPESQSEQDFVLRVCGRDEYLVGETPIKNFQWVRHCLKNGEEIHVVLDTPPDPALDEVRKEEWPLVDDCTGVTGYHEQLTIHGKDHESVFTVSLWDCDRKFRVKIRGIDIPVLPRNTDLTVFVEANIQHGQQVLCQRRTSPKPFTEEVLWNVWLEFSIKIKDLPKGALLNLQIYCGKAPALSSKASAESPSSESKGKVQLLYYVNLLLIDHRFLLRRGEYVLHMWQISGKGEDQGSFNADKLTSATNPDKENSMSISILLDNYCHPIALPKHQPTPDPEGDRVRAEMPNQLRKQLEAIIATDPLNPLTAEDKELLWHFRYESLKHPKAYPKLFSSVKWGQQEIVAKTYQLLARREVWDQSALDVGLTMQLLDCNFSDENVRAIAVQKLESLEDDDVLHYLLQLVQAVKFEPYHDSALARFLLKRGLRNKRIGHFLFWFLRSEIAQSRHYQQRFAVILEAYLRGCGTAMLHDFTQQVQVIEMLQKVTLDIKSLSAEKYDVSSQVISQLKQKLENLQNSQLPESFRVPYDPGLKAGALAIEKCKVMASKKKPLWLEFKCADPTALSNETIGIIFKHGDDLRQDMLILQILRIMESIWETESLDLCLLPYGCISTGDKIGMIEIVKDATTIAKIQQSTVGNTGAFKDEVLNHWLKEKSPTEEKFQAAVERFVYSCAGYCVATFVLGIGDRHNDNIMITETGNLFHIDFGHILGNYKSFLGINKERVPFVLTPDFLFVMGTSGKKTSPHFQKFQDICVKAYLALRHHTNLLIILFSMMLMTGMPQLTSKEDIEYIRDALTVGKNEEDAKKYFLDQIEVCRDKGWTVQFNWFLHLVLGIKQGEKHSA

SMILES | pIC50 [1] | pIC50 [2] | pIC50 [3]
[2H]C([2H])([2H])c1ccc(C(O)(CO)C(F)F)cc1-c1cnc(N)c(C(=O)NC23CCC(C#N)(C2)C3)n1 (single isomer, unassigned) [Example 40] | ≥ 7.00 | ≥ 7.00 | > 7.00
Cc1ccc(C(O)(CO)C(F)(F)F)cc1-c1cnc(N)c(-n2cccn2)n1 (single isomer, unassigned) [Example 12, 2-(3-(5-Amino-6-(1H-pyrazol-1-yl)pyrazin-2-yl)-4-methylphenyl)-3,3,3-trifluoropropane-1,2-diol] | ≥ 7.00 | ≥ 7.00 | > 7.00
Cc1ncc(-c2nc(-c3cc(C(O)(CO)C(F)(F)F)ccc3C)cnc2N)o1 (single isomer, unassigned) [Example 9, 2-(3-(5-Amino-6-(2-methyloxazol-5-yl)pyrazin-2-yl)-4-methylphenyl)-3,3,3-trifluoropropane-1,2-diol] | ≥ 7.00 | ≥ 7.00 | > 7.00
Cc1ccc([C@](O)(CO)C(F)F)cc1-c1cnc(N)c(C(=O)N[C@@H](C)CO)n1 (single isomer, unassigned) [Example 43] | ≥ 7.00 | ≥ 6.30 | > 6.30
[2H]C([2H])([2H])c1ccc(C(O)(C(C)O)C(F)(F)F)cc1-c1cnc(N)c(C(=O)NC2CCOCC2)n1 (single isomer, unassigned) [Example 19, 3-Amino-6-(2-(methyl-d3)-5-(1,1,1-trifluoro-2,3-dihydroxybutan-2-yl)phenyl)-N-(tetrahydro-2H-pyran-4-yl)pyrazine-2-carboxamide] | ≥ 7.00 | ≥ 6.30 | > 6.30
[2H]C([2H])([2H])n1nccc1-c1nc(-c2cc(C(O)(CO)C(F)(F)F)ccc2C)cnc1N (single isomer, unassigned) [Example 1a, 2-(3-(5-Amino-6-(1-(methyl-d3)-1H-pyrazol-5-yl)pyrazin-2-yl)-4-methylphenyl)-3,3,3-trifluoropropane-1,2-diol] | ≥ 7.00 | ≥ 7.00 | > 7.00
[2H]C([2H])([2H])c1ccc(C(O)(CO)C(F)F)cc1-c1cnc(N)c(C(=O)NC2CCOCC2)n1 (single isomer, unassigned) [Example 41] | ≥ 7.00 | ≥ 7.00 | > 7.00
Cc1ccc(C(O)(CO)C(F)F)cc1-c1cnc(N)c(C(=O)NC23CCC(C#N)(C2)C3)n1 (single isomer, unassigned) [Example 48, 3-Amino-N-(4-cyanobicyclo[2.1.1]hexan-1-yl)-6-(5-(1,1-difluoro-2,3-dihydroxypropan-2-yl)-2-methylphenyl)pyrazine-2-carboxamide] | ≥ 7.00 | ≥ 7.00 | > 7.00

Next, values leading:

pIC50 [1] | pIC50 [2] | pIC50 [3] | SMILES
≥ 7.00 | ≥ 6.30 | > 7.00 | [2H]C([2H])([2H])c1ccc(C(O)(CO)C(F)(F)F)cc1-c1cnc(N)c(C(=O)NC2CCOCC2O)n1 (single isomer, unassigned) [Example 28]
≥ 7.00 | ≥ 7.00 | > 7.00 | [2H]C([2H])([2H])c1ccc(C(O)(CO)C(F)(F)F)cc1-c1cnc(N)c(C(=O)NC23CCC(O)(C2)C3)n1 (single isomer, unassigned) [Example 37]
≥ 7.00 | ≥ 7.00 | > 7.00 | [2H]C([2H])([2H])c1ccc(C(O)(CO)C(F)(F)F)cc1-c1cnc(N)c(C(=O)N[C@]2(C)C[C@H](O)C2)n1 (single isomer, unassigned) [Example 30]
≥ 7.00 | ≥ 7.00 | > 7.00 | [2H]C([2H])([2H])c1ccc(C(O)(CO)C(F)(F)F)cc1-c1cnc(N)c(C(=O)NC2CC(C#N)C2)n1 (single isomer, unassigned) [Example 26]
≥ 7.00 | ≥ 7.00 | > 7.00 | [2H]C([2H])([2H])c1ccc(C(O)(CO)C(F)(F)F)cc1-c1cnc(N)c(C(=O)N[C@H]2C[C@](O)(C(F)(F)F)C2)n1 (single isomer, unassigned) [Example 29]
